Measured values reported in ChEMBL document CHEMBL1909046, “DrugMatrix in vitro pharmacology data”.

What was measured:
[1] = biological target: T1, Type-2 angiotensin II receptor (Homo sapiens, UniProt P50052); type: cell-based; conditions: cho-k1
T1 sequence (P50052 whole entry): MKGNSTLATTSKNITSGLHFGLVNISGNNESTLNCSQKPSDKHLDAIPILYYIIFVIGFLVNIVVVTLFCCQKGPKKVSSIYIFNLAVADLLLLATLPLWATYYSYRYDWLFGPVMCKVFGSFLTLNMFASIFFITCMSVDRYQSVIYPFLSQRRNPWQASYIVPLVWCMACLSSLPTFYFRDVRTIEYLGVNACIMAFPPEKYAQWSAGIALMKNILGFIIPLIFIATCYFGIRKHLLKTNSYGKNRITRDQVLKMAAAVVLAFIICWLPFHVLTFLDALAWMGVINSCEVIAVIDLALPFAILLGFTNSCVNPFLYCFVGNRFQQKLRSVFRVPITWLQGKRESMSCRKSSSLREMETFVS

[2] = biological target: T2, Nitric oxide synthase, inducible (Mus musculus, UniProt P29477); parameters: species or system Escherichia coli;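 also: inhibition of iNOS enzyme activity measured with L-arginine as substrate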
T2 sequence (P29477 whole entry): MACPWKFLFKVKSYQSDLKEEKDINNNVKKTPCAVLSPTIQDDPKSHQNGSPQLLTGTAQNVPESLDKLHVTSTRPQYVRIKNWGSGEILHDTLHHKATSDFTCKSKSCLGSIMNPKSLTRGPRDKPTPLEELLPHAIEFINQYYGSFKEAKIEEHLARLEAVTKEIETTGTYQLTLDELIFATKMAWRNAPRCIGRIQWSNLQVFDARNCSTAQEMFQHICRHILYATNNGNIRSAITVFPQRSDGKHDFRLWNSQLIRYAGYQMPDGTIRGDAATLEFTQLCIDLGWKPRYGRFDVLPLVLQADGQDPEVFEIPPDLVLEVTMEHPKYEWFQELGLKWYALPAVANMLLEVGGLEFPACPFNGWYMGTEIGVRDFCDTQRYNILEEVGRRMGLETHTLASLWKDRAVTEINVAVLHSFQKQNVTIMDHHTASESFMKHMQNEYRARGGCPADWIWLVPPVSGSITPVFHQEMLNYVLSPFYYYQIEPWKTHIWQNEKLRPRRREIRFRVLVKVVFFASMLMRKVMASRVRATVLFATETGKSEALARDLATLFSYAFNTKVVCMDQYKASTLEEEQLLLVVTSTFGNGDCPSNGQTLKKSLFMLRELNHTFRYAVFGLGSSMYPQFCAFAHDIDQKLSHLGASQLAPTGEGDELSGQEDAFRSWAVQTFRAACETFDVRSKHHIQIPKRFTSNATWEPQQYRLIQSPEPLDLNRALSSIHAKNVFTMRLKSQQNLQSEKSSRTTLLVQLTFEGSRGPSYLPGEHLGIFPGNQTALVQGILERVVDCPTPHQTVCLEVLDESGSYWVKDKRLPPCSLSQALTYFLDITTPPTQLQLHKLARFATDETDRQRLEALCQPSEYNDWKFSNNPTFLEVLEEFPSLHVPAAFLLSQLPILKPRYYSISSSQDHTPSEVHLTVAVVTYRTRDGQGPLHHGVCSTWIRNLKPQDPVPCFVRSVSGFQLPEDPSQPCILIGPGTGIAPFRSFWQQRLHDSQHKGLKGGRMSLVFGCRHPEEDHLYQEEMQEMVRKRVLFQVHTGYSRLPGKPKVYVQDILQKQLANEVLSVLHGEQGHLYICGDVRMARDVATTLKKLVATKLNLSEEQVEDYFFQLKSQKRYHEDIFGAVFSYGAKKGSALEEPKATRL

Cytochrome P450 1A2 = biological target: T3, Cytochrome P450 1A2 (Homo sapiens, UniProt P05177); conditions: bti-tn-5b1-4
T3 sequence (P05177 whole entry): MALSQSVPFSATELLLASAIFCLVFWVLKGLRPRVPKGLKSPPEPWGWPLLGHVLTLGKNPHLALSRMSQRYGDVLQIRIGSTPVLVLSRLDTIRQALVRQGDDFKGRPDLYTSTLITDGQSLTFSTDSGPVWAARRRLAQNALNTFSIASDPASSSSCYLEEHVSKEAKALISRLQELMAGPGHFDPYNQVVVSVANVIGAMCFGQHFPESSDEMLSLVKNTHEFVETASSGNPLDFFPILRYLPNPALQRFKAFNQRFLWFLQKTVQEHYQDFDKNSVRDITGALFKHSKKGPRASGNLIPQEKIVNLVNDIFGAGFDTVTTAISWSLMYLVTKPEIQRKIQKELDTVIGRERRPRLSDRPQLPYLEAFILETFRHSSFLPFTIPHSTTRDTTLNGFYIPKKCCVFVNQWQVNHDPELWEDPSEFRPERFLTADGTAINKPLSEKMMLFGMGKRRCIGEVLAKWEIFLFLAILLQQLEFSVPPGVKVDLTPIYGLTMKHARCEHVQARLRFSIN

Cytochrome P450 2C19 = Cytochrome P450 2C19 (Homo sapiens, UniProt P33261); conditions: bti-tn-5b1-4
Cytochrome P450 2C19, sequence (P33261 whole entry): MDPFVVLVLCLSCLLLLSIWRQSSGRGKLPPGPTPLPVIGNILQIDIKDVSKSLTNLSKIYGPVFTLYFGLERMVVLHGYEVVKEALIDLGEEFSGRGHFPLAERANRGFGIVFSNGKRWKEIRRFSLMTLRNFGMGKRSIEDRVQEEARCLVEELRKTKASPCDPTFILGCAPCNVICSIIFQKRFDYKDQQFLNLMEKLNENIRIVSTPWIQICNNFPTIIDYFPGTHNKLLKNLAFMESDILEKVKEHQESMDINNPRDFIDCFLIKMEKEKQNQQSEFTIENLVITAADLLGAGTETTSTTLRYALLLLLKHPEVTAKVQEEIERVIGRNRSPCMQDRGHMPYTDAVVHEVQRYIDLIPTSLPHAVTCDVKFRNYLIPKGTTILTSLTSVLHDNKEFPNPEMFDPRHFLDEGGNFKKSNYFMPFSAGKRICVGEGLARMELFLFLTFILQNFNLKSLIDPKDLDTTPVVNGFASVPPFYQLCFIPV

Cytochrome P450 2C9 = Cytochrome P450 2C9 (Homo sapiens, UniProt P11712); conditions: bti-tn-5b1-4
Cytochrome P450 2C9, sequence (P11712 whole entry): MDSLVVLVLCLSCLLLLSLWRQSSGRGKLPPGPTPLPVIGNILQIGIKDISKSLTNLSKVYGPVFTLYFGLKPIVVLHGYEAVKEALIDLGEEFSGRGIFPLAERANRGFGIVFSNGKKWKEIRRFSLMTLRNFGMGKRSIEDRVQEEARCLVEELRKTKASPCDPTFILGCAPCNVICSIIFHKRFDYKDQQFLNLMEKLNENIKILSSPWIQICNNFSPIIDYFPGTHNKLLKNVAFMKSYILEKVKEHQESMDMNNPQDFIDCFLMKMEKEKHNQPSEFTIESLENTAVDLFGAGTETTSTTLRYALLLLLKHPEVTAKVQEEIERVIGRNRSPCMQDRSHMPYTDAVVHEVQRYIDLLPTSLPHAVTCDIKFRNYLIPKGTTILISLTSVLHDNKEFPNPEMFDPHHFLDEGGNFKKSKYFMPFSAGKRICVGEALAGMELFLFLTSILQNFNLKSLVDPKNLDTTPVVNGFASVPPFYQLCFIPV

Cytochrome P450 2D6 = Cytochrome P450 2D6 (Homo sapiens, UniProt P10635); conditions: bti-tn-5b1-4
Cytochrome P450 2D6, sequence (P10635 whole entry): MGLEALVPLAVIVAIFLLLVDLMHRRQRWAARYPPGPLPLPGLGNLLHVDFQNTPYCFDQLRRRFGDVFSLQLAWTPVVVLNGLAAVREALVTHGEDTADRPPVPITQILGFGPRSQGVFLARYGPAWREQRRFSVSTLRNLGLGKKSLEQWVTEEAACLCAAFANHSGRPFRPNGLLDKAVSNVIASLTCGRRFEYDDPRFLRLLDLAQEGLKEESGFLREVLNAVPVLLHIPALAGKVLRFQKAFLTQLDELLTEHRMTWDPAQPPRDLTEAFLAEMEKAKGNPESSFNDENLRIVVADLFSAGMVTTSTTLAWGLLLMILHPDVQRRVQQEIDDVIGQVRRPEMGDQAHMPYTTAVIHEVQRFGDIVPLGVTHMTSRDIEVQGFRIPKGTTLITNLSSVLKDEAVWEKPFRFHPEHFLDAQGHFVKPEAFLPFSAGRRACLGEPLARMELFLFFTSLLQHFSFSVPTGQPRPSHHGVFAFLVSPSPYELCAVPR

Estrogen receptor = biological target: T4, Estrogen receptor (Homo sapiens, UniProt P03372); conditions: sf9
T4 sequence (P03372 whole entry): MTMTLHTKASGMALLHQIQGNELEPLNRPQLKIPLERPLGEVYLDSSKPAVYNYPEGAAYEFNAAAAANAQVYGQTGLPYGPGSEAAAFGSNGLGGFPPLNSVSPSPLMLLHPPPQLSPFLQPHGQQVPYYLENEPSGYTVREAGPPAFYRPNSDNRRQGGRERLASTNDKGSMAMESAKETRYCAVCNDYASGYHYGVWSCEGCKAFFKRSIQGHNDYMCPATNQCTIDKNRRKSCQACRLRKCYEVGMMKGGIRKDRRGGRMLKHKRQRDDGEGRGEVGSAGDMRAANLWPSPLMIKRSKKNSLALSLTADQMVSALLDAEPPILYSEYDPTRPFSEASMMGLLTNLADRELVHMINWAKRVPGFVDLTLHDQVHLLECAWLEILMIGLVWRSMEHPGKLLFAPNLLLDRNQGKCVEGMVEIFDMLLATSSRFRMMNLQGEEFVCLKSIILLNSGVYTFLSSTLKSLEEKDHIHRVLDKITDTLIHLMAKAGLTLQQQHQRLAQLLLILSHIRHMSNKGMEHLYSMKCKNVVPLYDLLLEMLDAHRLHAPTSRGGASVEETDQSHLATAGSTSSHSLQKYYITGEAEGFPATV
Also: in other assays of this panel Not Active means under 50% inhibition at 10 µM.

CC(C)(C)NCC(O)c1ccc(O)c(CO)c1 (configuration not stated) [ALBUTEROL]
Not Active: IC50 [1] | IC50 [2] | IC50 (Cytochrome P450 1A2) | Ki (Cytochrome P450 1A2) | IC50 (Cytochrome P450 2C19) | Ki (Cytochrome P450 2C19) | IC50 (Cytochrome P450 2C9) | Ki (Cytochrome P450 2C9) | IC50 (Cytochrome P450 2D6) | Ki (Cytochrome P450 2D6) | IC50 (Estrogen receptor)

CC1(C)[C@H]2CC[C@]1(C)C(=O)C2 [(-)-CAMPHOR]
Not Active: IC50 [1] | IC50 [2] | IC50 (Cytochrome P450 1A2) | Ki (Cytochrome P450 1A2) | IC50 (Cytochrome P450 2C19) | Ki (Cytochrome P450 2C19) | IC50 (Cytochrome P450 2C9) | Ki (Cytochrome P450 2C9) | IC50 (Cytochrome P450 2D6) | Ki (Cytochrome P450 2D6) | IC50 (Estrogen receptor)

CC[C@H]1OC(=O)[C@H](C)[C@@H](O[C@H]2C[C@@](C)(OC)[C@@H](O)[C@H](C)O2)[C@H](C)[C@@H](O[C@@H]2O[C@H](C)C[C@H](N(C)C)[C@H]2O)[C@](C)(O)C[C@@H](C)/C(=N\OCOCCOC)[C@H](C)[C@@H](O)[C@]1(C)O [ROXITHROMYCIN]
Not Active: IC50 [1] | IC50 [2] | IC50 (Cytochrome P450 1A2) | Ki (Cytochrome P450 1A2) | IC50 (Cytochrome P450 2C19) | Ki (Cytochrome P450 2C19) | IC50 (Cytochrome P450 2C9) | Ki (Cytochrome P450 2C9) | IC50 (Cytochrome P450 2D6) | Ki (Cytochrome P450 2D6) | IC50 (Estrogen receptor)

CCOC(=O)[C@H](CCc1ccccc1)N[C@@H](C)C(=O)N1[C@H](C(=O)O)C[C@@H]2CCC[C@@H]21
Not Active: IC50 [1] | IC50 [2] | IC50 (Cytochrome P450 1A2) | Ki (Cytochrome P450 1A2) | IC50 (Cytochrome P450 2C19) | Ki (Cytochrome P450 2C19) | IC50 (Cytochrome P450 2C9) | Ki (Cytochrome P450 2C9) | IC50 (Cytochrome P450 2D6) | Ki (Cytochrome P450 2D6) | IC50 (Estrogen receptor)

Cc1ccc(C(=O)C(C)CN2CCCCC2)cc1 (configuration not stated) [TOLPERISONE]
Not Active: IC50 [1] | IC50 [2] | IC50 (Cytochrome P450 1A2) | Ki (Cytochrome P450 1A2) | IC50 (Cytochrome P450 2C19) | Ki (Cytochrome P450 2C19) | IC50 (Cytochrome P450 2C9) | Ki (Cytochrome P450 2C9) | IC50 (Cytochrome P450 2D6) | Ki (Cytochrome P450 2D6) | IC50 (Estrogen receptor)

IVERMECTIN
Not Active: IC50 [1] | Ki [1] | IC50 [2] | Ki [2] | IC50 (Cytochrome P450 1A2) | Ki (Cytochrome P450 1A2) | IC50 (Cytochrome P450 2C19) | Ki (Cytochrome P450 2C19) | IC50 (Cytochrome P450 2C9) | Ki (Cytochrome P450 2C9) | IC50 (Cytochrome P450 2D6) | Ki (Cytochrome P450 2D6) | IC50 (Estrogen receptor) | Ki (Estrogen receptor)

COc1cccc(C2(O)CCCCC2CN(C)C)c1 (configuration not stated) [TRAMADOL]
Not Active: IC50 [1] | IC50 [2] | IC50 (Cytochrome P450 1A2) | Ki (Cytochrome P450 1A2) | IC50 (Cytochrome P450 2C19) | Ki (Cytochrome P450 2C19) | IC50 (Cytochrome P450 2C9) | Ki (Cytochrome P450 2C9) | IC50 (Cytochrome P450 2D6) | Ki (Cytochrome P450 2D6) | IC50 (Estrogen receptor)

NNC(=O)c1ccncc1 [ISONIAZID]
Not Active: IC50 [1] | IC50 [2] | IC50 (Cytochrome P450 1A2) | Ki (Cytochrome P450 1A2) | IC50 (Cytochrome P450 2C19) | Ki (Cytochrome P450 2C19) | IC50 (Cytochrome P450 2C9) | Ki (Cytochrome P450 2C9) | IC50 (Cytochrome P450 2D6) | Ki (Cytochrome P450 2D6) | IC50 (Estrogen receptor)

NC(=O)c1ccccc1O [SALICYLAMIDE]
Not Active: IC50 [1] | IC50 [2] | IC50 (Cytochrome P450 1A2) | Ki (Cytochrome P450 1A2) | IC50 (Cytochrome P450 2C19) | Ki (Cytochrome P450 2C19) | IC50 (Cytochrome P450 2C9) | Ki (Cytochrome P450 2C9) | IC50 (Cytochrome P450 2D6) | Ki (Cytochrome P450 2D6) | IC50 (Estrogen receptor)
